Source: patent US20060069123A1, “Substituted dipiperidine CCR2 antagonists” (priority 2004, published 2006)
Like-named read-outs stand apart in the source and are kept apart here.

Assays:
THP-1 cells = test: MCP-1 Induced Chemotaxis in THP-1 Cells; assay type: cell-based; settings: Homo sapiens, THP-1 cells, MCP-1 0.01 μg/mL, 3 hours, read-out: Inhibition of MCP-1 Induced Chemotaxis IC50
Procedure: MCP-1 Induced Chemotaxis in THP-1 Cells
MCP-1 induced chemotaxis was run in a 24-well chemotaxis chamber. MCP-1 (0.01 μg/mL) was added to the lower chamber and 100 μL of THP-1 cells (1×10^7 cell/mL) was added to the top chamber. Varying concentrations of test compound were added to the top and bottom chambers. Cells were allowed to chemotax for 3 hours at 37° C. and 5% CO2. An aliquot of the cells that had migrated to the bottom chamber was taken and counted then compared to vehicle.

CCR2 = molecular target: T1, CCR2 (Homo sapiens, UniProt P41597)
T1 sequence (P41597 1-360 isoform P41597-2): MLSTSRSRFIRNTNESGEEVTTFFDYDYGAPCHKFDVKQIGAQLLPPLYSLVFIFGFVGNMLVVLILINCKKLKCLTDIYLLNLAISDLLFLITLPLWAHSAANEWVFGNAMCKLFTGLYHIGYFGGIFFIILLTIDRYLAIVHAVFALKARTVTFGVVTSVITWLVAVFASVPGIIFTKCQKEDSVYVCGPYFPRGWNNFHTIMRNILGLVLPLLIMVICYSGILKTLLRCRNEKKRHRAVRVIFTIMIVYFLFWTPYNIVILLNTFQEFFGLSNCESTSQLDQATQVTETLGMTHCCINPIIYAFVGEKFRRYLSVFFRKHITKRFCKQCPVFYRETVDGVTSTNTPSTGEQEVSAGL

Q: With `O=C(O)C(C1CCN(C(=O)Nc2ccc(F)c(Cl)c2)CC1)N1CCC(c2c[nH]c3ccccc23)CC1` (centres unmarked) [Cpd 48, [1-(3-chloro-4-fluoro-phenylcarbamoyl)-piperidin-4-yl]-[4-(1H-indol-3-yl)-piperidin-1-yl]-acetic acid] as the molecule, how does the IC50 (THP-1 cells) read?
A: 40 nM

Q: What about the IC50 (CCR2) of the same molecule?
A: 30 nM

Q: With `O=C(O)C(C1CCN(C(=O)/C=C/c2ccc(C(F)(F)F)c(F)c2)CC1)N1CCC(c2c[nH]c3ccccc23)CC1` (centres unmarked) [Cpd 75, {1-[(2E)-3-(3-fluoro-4-trifluoromethyl-phenyl)-acryloyl]-piperidin-4-yl}-[4-(1H-indol-3-yl)-piperidin-1-yl]-acetic acid] as the molecule, how does the IC50 (THP-1 cells) read?
A: 9 nM

Q: And the IC50 (CCR2)?
A: 4 nM

Q: How did the IC50 (THP-1 cells) turn out when `COc1ccc2c(C3CCN(C(C(=O)O)C4CCN(C(=O)/C=C/c5cc(F)cc(F)c5)CC4)CC3)c[nH]c2c1` (centres unmarked) [Cpd 38, {1-[(2E)-3-(3,5-difluoro-phenyl)-acryloyl]-piperidin-4-yl}-[4-(6-methoxy-1H-indol-3-yl)-piperidin-1-yl]-acetic acid] was run?
A: 4 nM

Q: What about the IC50 (CCR2) of the same molecule?
A: 20 nM

Q: For `COc1ccc2c(C3CCN(C(C(=O)O)C4CCN(C(=O)Nc5ccc(Cl)c(Cl)c5)CC4)CC3)c[nH]c2c1` (centres unmarked) [Cpd 95, [1-(3,4-dichloro-phenylcarbamoyl)-piperidin-4-yl]-[4-(6-methoxy-1H-indol-3-yl)-piperidin-1-yl]-acetic acid], which IC50 (THP-1 cells) is on record?
A: 20 nM

Q: What about the IC50 (CCR2) of the same molecule?
A: 20 nM

Q: What does the source list for `O=C(O)C(C1CCN(C(=O)/C=C/c2ccc(Cl)cc2)CC1)N1CCC(c2c[nH]c3ccccc23)CC1` (centres unmarked) [Cpd 34, {1-[(2E)-3-(4-chloro-phenyl)-acryloyl]-piperidin-4-yl}-[4-(1H-indol-3-yl)-piperidin-1-yl]-acetic acid]?
A: IC50 (THP-1 cells): 6 nM; IC50 (CCR2): 10 nM

Q: With `O=C(O)C(C1CCN(C(=O)/C=C/c2ccc(F)c(F)c2)CC1)N1CCC(c2c[nH]c3ccccc23)CC1` (centres unmarked) [Cpd 22, {1-[(2E)-3-(3,4-difluoro-phenyl)-acryloyl]-piperidin-4-yl}-[4-(1H-indol-3-yl)-piperidin-1-yl]-acetic acid] as the molecule, how does the IC50 (THP-1 cells) read?
A: 4 nM

Q: How did the IC50 (THP-1 cells) turn out when `O=C(O)C(C1CCN(C(=O)/C=C/c2cc(F)cc(F)c2)CC1)N1CCC(c2c[nH]c3ccc(O)cc23)CC1` (centres unmarked) [Cpd 16, {1-[(2E)-3-(3,5-difluoro-phenyl)-acryloyl]-piperidin-4-yl}-[4-(5-hydroxy-1H-indol-3-yl)-piperidin-1-yl]-acetic acid] was run?
A: 20 nM

Q: How did the IC50 (THP-1 cells) turn out when `COc1ccc(C2CCN(C(C(=O)O)C3CCN(C(=O)/C=C/c4cc(F)cc(F)c4)CC3)CC2)cc1` (centres unmarked) [Cpd 2, {1-[(2E)-3-(3,5-difluoro-phenyl)-acryloyl]-piperidin-4-yl}-[4-(4-methoxy-phenyl)-piperidin-1-yl]-acetic acid] was run?
A: 1810 nM

Q: And the IC50 (CCR2)?
A: 1830 nM

Q: How did the IC50 (THP-1 cells; THP-1, 3 h) turn out when `CS(=O)(=O)Nc1ccc2c(C3CCN(C(C(=O)O)C4CCN(C(=O)/C=C/c5cc(F)c(F)c(F)c5)CC4)CC3)c[nH]c2c1` (centres unmarked) [Cpd 82] was run?
A: 210 nM

Q: With `COc1ccc2[nH]cc(C3CCN(C(C(=O)O)C4CCN(C(=O)/C=C/c5cc(F)cc(F)c5)CC4)CC3)c2c1` (centres unmarked) [Cpd 26, {1-[(2E)-3-(3,5-difluoro-phenyl)-acryloyl]-piperidin-4-yl}-[4-(5-methoxy-1H-indol-3-yl)-piperidin-1-yl]-acetic acid] as the molecule, how does the IC50 (THP-1 cells) read?
A: 30 nM

Q: Which IC50 (THP-1 cells) does the source give for `COc1cccc2[nH]cc(C3CCN(C(C(=O)O)C4CCN(C(=O)/C=C/c5cc(F)cc(F)c5)CC4)CC3)c12` (centres unmarked) [Cpd 41, {1-[(2E)-3-(3,5-difluoro-phenyl)-acryloyl]-piperidin-4-yl}-[4-(4-methoxy-1H-indol-3-yl)-piperidin-1-yl]-acetic acid] here?
A: 40 nM

Q: What about the IC50 (CCR2) of the same molecule?
A: 14 nM

Q: `O=C(O)C(C1CCN(C(=O)/C=C/c2cccc(Br)c2)CC1)N1CCC(c2c[nH]c3ccccc23)CC1` (centres unmarked) [Cpd 71, {1-[(2E)-3-(3-bromo-phenyl)-acryloyl]-piperidin-4-yl}-[4-(1H-indol-3-yl)-piperidin-1-yl]-acetic acid] was tested. Which IC50 (THP-1 cells) did it give?
A: 7 nM

Q: What about the IC50 (CCR2) of the same molecule?
A: 20 nM

Q: `O=C(O)C(C1CCN(C(=O)/C=C/c2cc(F)cc(F)c2)CC1)N1CCC(c2c[nH]c3cc(Cl)ccc23)CC1` (centres unmarked) [Cpd 25, [4-(6-chloro-1H-indol-3-yl)-piperidin-1-yl]-{1-[(2E)-3-(3,5-difluoro-phenyl)-acryloyl]-piperidin-4-yl}-acetic acid] was tested. Which IC50 (THP-1 cells) did it give?
A: 10 nM

Q: For `CS(=O)(=O)Nc1ccc2[nH]cc(C3CCN(C(C(=O)O)C4CCN(C(=O)/C=C/c5cc(F)cc(F)c5)CC4)CC3)c2c1` (centres unmarked) [Cpd 29, {1-[(2E)-3-(3,5-difluoro-phenyl)-acryloyl]-piperidin-4-yl}-[4-(5-methanesulfonylamino-1H-indol-3-yl)-piperidin-1-yl]-acetic acid], which IC50 (THP-1 cells) is on record?
A: 0.4 nM

Q: What about the IC50 (CCR2) of the same molecule?
A: 24 nM

Q: For `O=C(O)C(C1CCN(C(=O)/C=C/c2ccc(F)c(Br)c2)CC1)N1CCC(c2c[nH]c3ccccc23)CC1` (centres unmarked) [Cpd 36, {1-[(2E)-3-(3-bromo-4-fluoro-phenyl)-acryloyl]-piperidin-4-yl}-[4-(1H-indol-3-yl)-piperidin-1-yl]-acetic acid], which IC50 (THP-1 cells) is on record?
A: 0.4 nM

Q: And the IC50 (CCR2)?
A: 8 nM

Q: How did the IC50 (THP-1 cells) turn out when `Cc1cccc(/C=C/C(=O)N2CCC(C(C(=O)O)N3CCC(c4c[nH]c5ccccc45)CC3)CC2)c1` (centres unmarked) [Cpd 70, [4-(1H-indol-3-yl)-piperidin-1-yl]-{1-[(2E)-3-m-tolyl-acryloyl]-piperidin-4-yl}-acetic acid] was run?
A: 20 nM

Q: And the IC50 (CCR2)?
A: 3 nM

Q: `O=C(O)C(C1CCN(C(=O)/C=C/c2cc(F)c(F)c(F)c2)CC1)N1CCC(c2c[nH]c3ncccc23)CC1` (centres unmarked) [Cpd 151, [4-(1H-pyrrolo[2,3-b]pyridin-3-yl)-piperidin-1-yl]-{1-[(2E)-3-(3,4,5-trifluoro-phenyl)-acryloyl]-piperidin-4-yl}-acetic acid] was tested. Which IC50 (THP-1 cells) did it give?
A: 30 nM

Q: What about the IC50 (CCR2) of the same molecule?
A: 10 nM

Q: `O=C(O)C(C1CCN(C(=O)/C=C/c2ccc(Br)cc2)CC1)N1CCC(c2c[nH]c3ccccc23)CC1` (centres unmarked) [Cpd 60, {1-[(2E)-3-(4-bromo-phenyl)-acryloyl]-piperidin-4-yl}-[4-(1H-indol-3-yl)-piperidin-1-yl]-acetic acid] was tested. Which IC50 (THP-1 cells) did it give?
A: 70 nM

Q: How did the IC50 (THP-1 cells) turn out when `O=C(O)C(C1CCN(C(=O)Nc2ccc(F)c(F)c2)CC1)N1CCC(c2c[nH]c3ccccc23)CC1` (centres unmarked) [Cpd 40, [1-(3,4-difluoro-phenylcarbamoyl)-piperidin-4-yl]-[4-(1H-indol-3-yl)-piperidin-1-yl]-acetic acid] was run?
A: 30 nM

Q: How did the IC50 (THP-1 cells) turn out when `O=C(O)C(C1CCN(C(=O)/C=C/c2cc(F)cc(F)c2)CC1)N1CCC(c2c[nH]c3ccc(F)cc23)CC1` (centres unmarked) [Cpd 8, {1-[(2E)-3-(3,5-difluoro-phenyl)-acryloyl]-piperidin-4-yl}-[4-(5-fluoro-1H-indol-3-yl)-piperidin-1-yl]-acetic acid] was run?
A: 10 nM

Q: With `COc1cccc2c(C3CCN(C(C(=O)O)C4CCN(C(=O)/C=C/c5cc(F)cc(F)c5)CC4)CC3)c[nH]c12` (centres unmarked) [Cpd 42, {1-[(2E)-3-(3,5-difluoro-phenyl)-acryloyl]-piperidin-4-yl}-[4-(7-methoxy-1H-indol-3-yl)-piperidin-1-yl]-acetic acid] as the molecule, how does the IC50 (THP-1 cells) read?
A: 0.8 nM

Q: `O=C(O)C(C1CCN(C(=O)/C=C/c2cccc(F)c2)CC1)N1CCC(c2c[nH]c3ccccc23)CC1` (centres unmarked) [Cpd 62, {1-[(2E)-3-(3-fluoro-phenyl)-acryloyl]-piperidin-4-yl}-[4-(1H-indol-3-yl)-piperidin-1-yl]-acetic acid] was tested. Which IC50 (THP-1 cells) did it give?
A: 180 nM

Q: Which IC50 (THP-1 cells) does the source give for `COc1cccc(/C=C/C(=O)N2CCC(C(C(=O)O)N3CCC(c4c[nH]c5ccccc45)CC3)CC2)c1` (centres unmarked) [Cpd 72, [4-(1H-indol-3-yl)-piperidin-1-yl]-{1-[(2E)-3-(3-methoxy-phenyl)-acryloyl]-piperidin-4-yl}-acetic acid] here?
A: 30 nM
